Read-outs that look alike come from different tables or passages of the source.
How the values were obtained:
hMATE1 = target: T1, hMATE1 (Homo sapiens, UniProt Q96FL8); assay: Inhibition of RI-labeled TEA uptake in HEK293 cells expressing hMATE1; conditions: for Inhibition of TEA uptake activity (in words, summary of Table 1): MATE1 expressing HEK293 cells, 50 μM TEA, pH 8.0; for TEA uptake activity percent taking the level with addition of no compound as 100% (% ± S.D.): 50 μM RI-labeled TEA, pH 8.0, HEK293 cells expressing hMATE1
T1 sequence (Q96FL8 1-570): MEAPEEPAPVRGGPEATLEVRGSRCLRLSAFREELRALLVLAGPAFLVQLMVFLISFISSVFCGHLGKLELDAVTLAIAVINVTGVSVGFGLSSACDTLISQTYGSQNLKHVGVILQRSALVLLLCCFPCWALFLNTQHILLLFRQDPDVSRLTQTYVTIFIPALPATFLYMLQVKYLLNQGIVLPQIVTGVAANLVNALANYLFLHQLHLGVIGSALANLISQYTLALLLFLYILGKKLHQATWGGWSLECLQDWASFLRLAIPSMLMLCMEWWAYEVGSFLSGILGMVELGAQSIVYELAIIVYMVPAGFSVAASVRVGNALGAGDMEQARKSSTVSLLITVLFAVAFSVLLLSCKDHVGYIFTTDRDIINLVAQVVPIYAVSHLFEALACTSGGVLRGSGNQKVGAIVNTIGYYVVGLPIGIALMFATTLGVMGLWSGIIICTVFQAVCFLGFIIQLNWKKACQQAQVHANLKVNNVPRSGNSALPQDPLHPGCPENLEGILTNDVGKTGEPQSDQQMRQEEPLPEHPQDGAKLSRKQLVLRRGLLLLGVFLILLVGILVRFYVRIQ

mMATE1 = target: T2, mMATE1 (Mus musculus, UniProt Q8K0H1); assay: Inhibition of RI-labeled TEA uptake in HEK293 cells expressing mMATE1; type: cell-based; conditions: for remaining activity at 1000 µM: compound 1 mM;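 on all read-outs here: transfected HEK293 cells held 5 min at 37 °C before tracer addition, uptake read as radioactivity retained on a 0.45-µm membrane filter, mean ± SD of three to nine experiments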
T2 construct: expressed in transfected cells; host or cells: HEK293
T2 sequence (Q8K0H1 with tags, fused parts or gaps): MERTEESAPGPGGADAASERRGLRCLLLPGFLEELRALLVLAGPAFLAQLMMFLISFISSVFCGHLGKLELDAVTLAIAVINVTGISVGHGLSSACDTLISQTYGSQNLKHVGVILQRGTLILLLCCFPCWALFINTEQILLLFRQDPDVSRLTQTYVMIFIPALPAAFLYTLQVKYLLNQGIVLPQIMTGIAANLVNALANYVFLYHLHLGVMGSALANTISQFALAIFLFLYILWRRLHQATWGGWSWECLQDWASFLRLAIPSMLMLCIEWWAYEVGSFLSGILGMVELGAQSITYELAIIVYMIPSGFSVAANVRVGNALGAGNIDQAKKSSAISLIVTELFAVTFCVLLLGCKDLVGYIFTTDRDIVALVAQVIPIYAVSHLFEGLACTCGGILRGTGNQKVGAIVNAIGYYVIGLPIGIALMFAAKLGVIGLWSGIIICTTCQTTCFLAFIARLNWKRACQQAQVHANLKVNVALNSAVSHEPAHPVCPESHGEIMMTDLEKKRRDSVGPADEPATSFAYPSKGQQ

[1] = compound 0.01 mM, 50 μM RI-labeled TEA, pH 8.0, HEK293 cells expressing mMATE1, read-out: TEA uptake activity percent taking the level with addition of no compound as 100% (% ± S.D.)
[2] = compound 0.1 mM, 50 μM RI-labeled TEA, pH 8.0, HEK293 cells expressing mMATE1, read-out: TEA uptake activity percent taking the level with addition of no compound as 100% (% ± S.D.)
[3] = 50 μM RI-labeled TEA, pH 8.0, HEK293 cells expressing mMATE1, read-out: TEA uptake activity percent taking the level with addition of no compound as 100% (% ± S.D.)
[4] = HEK293, pH 8, read-out: TEA uptake activity percent taking the level with addition of no compound as 100% (% ± S.D.)

With `CN/C(=N/CCSCc1nc[nH]c1C)NC#N` [Cimetidine] the “Inhibition of TEA uptake activity (in words, summary of Table 1)” value (shortened to “Inhibition of TEA uptake activity”) (hMATE1) was “strongly inhibited”, the “TEA uptake activity percent taking the level with addition of no compound as 100% (% ± S.D.)” value (hMATE1; compound 0.01 mM) was 44.7 ± 7.4% and the “TEA uptake activity percent taking the level with addition of no compound as 100% (% ± S.D.)” value (hMATE1; compound 0.1 mM) was 9.7 ± 8.7%. The remaining activity at 10 µM (mMATE1; [1]) was 29.3 ± 5.2% and the remaining activity at 100 µM (mMATE1; [2]) was 3.1 ± 5.1%.

For `O=c1c(O)c(-c2ccc(O)c(O)c2)oc2cc(O)cc(O)c12` [Quercetin], the “Inhibition of TEA uptake activity” value (hMATE1) was “inhibited”, the “TEA uptake activity percent taking the level with addition of no compound as 100% (% ± S.D.)” value (hMATE1; compound 0.1 mM) was 28.2 ± 3.1% and the remaining activity at 100 µM (mMATE1; [2]) was 47.1 ± 0.1%.

With `N=C(N)N` [Guanidine] the “TEA uptake activity percent taking the level with addition of no compound as 100% (% ± S.D.)” value (hMATE1; compound 0.5 mM) was 93.4 ± 7.6% and the remaining activity at 500 µM (mMATE1; compound 0.5 mM, 50 μM RI-labeled TEA, pH 8.0, HEK293 cells expressing mMATE1, read-out: TEA uptake activity percent taking the level with addition of no compound as 100% (% ± S.D.)) was 96 ± 8.5%.

With `C[N+](C)(C)CCO` [Choline] the “TEA uptake activity percent taking the level with addition of no compound as 100% (% ± S.D.)” value (hMATE1; compound 5 mM) was 62.7 ± 4.1% and the remaining activity at 5000 µM (mMATE1; compound 5 mM, 50 μM RI-labeled TEA, pH 8.0, HEK293 cells expressing mMATE1, read-out: TEA uptake activity percent taking the level with addition of no compound as 100% (% ± S.D.)) was 62 ± 8.8%.

With `C=C[C@H]1C[N@@]2CC[C@H]1C[C@@H]2[C@@H](O)c1ccnc2ccc(OC)cc12` [Quinidine] the “Inhibition of TEA uptake activity” value (hMATE1) was “strongly inhibited”, the “TEA uptake activity percent taking the level with addition of no compound as 100% (% ± S.D.)” value (hMATE1; compound 0.01 mM) was 35.0 ± 2.1% and the “TEA uptake activity percent taking the level with addition of no compound as 100% (% ± S.D.)” value (hMATE1; compound 0.05 mM) was 5.1 ± 8.9%. The “TEA uptake activity percent taking the level with addition of no compound as 100% (% ± S.D.)” value (hMATE1; compound 0.1 mM) was 0.0 ± 4.2%, the remaining activity at 10 µM (mMATE1; [1]) was 74.7 ± 9.8% and the remaining activity at 50 µM (mMATE1; compound 0.05 mM, 50 μM RI-labeled TEA, pH 8.0, HEK293 cells expressing mMATE1, read-out: TEA uptake activity percent taking the level with addition of no compound as 100% (% ± S.D.)) was 50.3 ± 5.4%. The remaining activity at 100 µM (mMATE1; [2]) was 26.6 ± 7.3%.

`CCCN(CCC)S(=O)(=O)c1ccc(C(=O)O)cc1` [Probenecid] was tested, and the “TEA uptake activity percent taking the level with addition of no compound as 100% (% ± S.D.)” value (hMATE1; compound 1 mM) was 108.5 ± 7.9% and the remaining activity at 1000 µM (mMATE1; [3]) was 93.7 ± 11.9%.

For `CNC(=O)c1cccnc1` [NMN, N-methylnicotinamide], the “TEA uptake activity percent taking the level with addition of no compound as 100% (% ± S.D.)” value (hMATE1; compound 1 mM) was 93.5 ± 1.9% and the remaining activity at 1000 µM (mMATE1; [3]) was 115 ± 8.9%.

For `CC(O)C(=O)O` (centres unmarked) [Lactate], the “TEA uptake activity percent taking the level with addition of no compound as 100% (% ± S.D.)” value (hMATE1; compound 10 mM) was 103.8 ± 8.8% and the “TEA uptake activity percent taking the level with addition of no compound as 100% (% ± S.D.)” value (mMATE1; compound 10 mM, 50 μM RI-labeled TEA, pH 8.0, HEK293 cells expressing mMATE1) was 93.9 ± 3.2%.

`Nc1ccc(C(=O)NCC(=O)O)cc1` [PAH] was tested, and the “TEA uptake activity percent taking the level with addition of no compound as 100% (% ± S.D.)” value (hMATE1; compound 5 mM) was 110.3 ± 2.7% and the “TEA uptake activity percent taking the level with addition of no compound as 100% (% ± S.D.)” value (mMATE1; compound 5 mM, 50 μM RI-labeled TEA, pH 8.0, HEK293 cells expressing mMATE1) was 94.7 ± 9.1%.

`O=c1[nH]c(=O)c2[nH]c(=O)[nH]c2[nH]1` [Uric acid] was tested, and the “Inhibition of TEA uptake activity” value (hMATE1) was “not inhibited”, the “TEA uptake activity percent taking the level with addition of no compound as 100% (% ± S.D.)” value (hMATE1; compound 1 mM) was 107.8 ± 2.7% and the remaining activity at 1000 µM (mMATE1; [3]) was 109 ± 6.4%.

For `C[C@]12CCC(=O)C=C1CC[C@@H]1[C@@H]2CC[C@]2(C)C(=O)CC[C@@H]12` [Androstenedione], the “TEA uptake activity percent taking the level with addition of no compound as 100% (% ± S.D.)” value (hMATE1; compound 0.1 mM) was 36.6 ± 0.9% and the remaining activity at 100 µM (mMATE1; [4]) was 8.6 ± 1.7%.

For `C[C@]12CC[C@H]3[C@@H](CCC4=CC(=O)CC[C@@]43C)[C@@H]1CC[C@@H]2O` [Testosterone], the “Inhibition of TEA uptake activity” value (hMATE1) was “inhibited”, the “TEA uptake activity percent taking the level with addition of no compound as 100% (% ± S.D.)” value (hMATE1; compound 0.001 mM) was 99.6 ± 4.3% and the “TEA uptake activity percent taking the level with addition of no compound as 100% (% ± S.D.)” value (hMATE1; compound 0.01 mM) was 64.5 ± 14.7%. For the same compound, the “TEA uptake activity percent taking the level with addition of no compound as 100% (% ± S.D.)” value (hMATE1; compound 0.1 mM) was 38.8 ± 3.2%, the remaining activity at 1 µM (mMATE1; [4]) was 67 ± 8.7% and the remaining activity at 10 µM (mMATE1; [4]) was 44.7 ± 3%. For the same compound, the remaining activity at 100 µM (mMATE1; [4]) was 11.5 ± 1.1%.

In the case of Rhodamine 123 [Rhodamine123], the “Inhibition of TEA uptake activity” value (hMATE1) is reported as “inhibited”, the “TEA uptake activity percent taking the level with addition of no compound as 100% (% ± S.D.)” value (hMATE1; compound 0.01 mM) is reported as 5.0 ± 6.4% and the “TEA uptake activity percent taking the level with addition of no compound as 100% (% ± S.D.)” value (mMATE1; compound 0.01 mM, 50 μM RI-labeled TEA, pH 8.0, HEK293 cells expressing mMATE1) is reported as 0.5 ± 6.2%.

In the case of `CCN(CC)CCNC(=O)c1ccc(N)cc1` [Procainamide], the “TEA uptake activity percent taking the level with addition of no compound as 100% (% ± S.D.)” value (hMATE1; compound 0.1 mM) is reported as 62.6 ± 0.8% and the remaining activity at 100 µM (mMATE1; [4]) is reported as 65.7 ± 8.2%.
